The target of the first assay is unphosphorylated-BTK kinase domain (UP-BTK), GST-tagged human BTK (389-659aa) (Homo sapiens (Human), UniProt Q06187). As to the kind of experiment: BTK Kinase Lanthascreen Binding Assay. Particulars: Lanthascreen binding, 60 minutes incubation; pIC50 = negative log of the IC50 in molar. As to the method: BTK Kinase Lanthascreen Binding Assay:
A BTK kinase lanthascreen binding assay monitors compound binding to unphosphorylated-BTK kinase domain (UP-BTK), by competing with a fluorescent labeled tracer. […] Data were analyzed using Xlfit™ version 5.3 from ID Business Solutions (Guildford), Microsoft Excel add-in. pIC50 refers to the negative log of the IC50 in molar.
On the technique in general: TR-FRET usually uses a lanthanide donor and a delayed reading to cut background.
Sequence of unphosphorylated-BTK kinase domain (UP-BTK), GST-tagged human BTK (389-659aa) (Q06187 389-659): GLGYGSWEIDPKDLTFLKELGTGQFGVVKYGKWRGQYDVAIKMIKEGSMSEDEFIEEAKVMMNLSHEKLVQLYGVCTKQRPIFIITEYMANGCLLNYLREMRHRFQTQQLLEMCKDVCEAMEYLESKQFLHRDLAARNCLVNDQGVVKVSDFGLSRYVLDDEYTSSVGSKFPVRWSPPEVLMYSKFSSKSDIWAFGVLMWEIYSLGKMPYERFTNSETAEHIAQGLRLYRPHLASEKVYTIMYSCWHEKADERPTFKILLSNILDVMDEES
For the compound `C=CC(=O)N[C@@H]1CCC[C@H]1NC(=O)c1sc2nccc3c2c1NC(=O)N3c1ccc(Oc2ccccc2)nc1C` (single isomer, unassigned) [Example 301, N-((1R,2R)-2-Acrylamidocyclopentyl)-5-(*S)-(2-methyl-6-phenoxypyridin-3-yl)-4-oxo-4,5-dihydro-3H-1-thia-3,5,8-triazaacenaphthylene-2-carboxamide], the “BTK_I_binding pIC50” value amounted to 7.97. On the same count and under the same terms, next, `C=CC(=O)N[C@H]1CCCC[C@H]1NC(=O)c1sc2nccc3c2c1NC(=O)N3c1ccc(Oc2ccccc2)nc1C` (single isomer, unassigned) [Example 303, N-((1R,2S)-2-Acrylamidocyclohexyl)-5-(*S)-(2-methyl-6-phenoxypyridin-3-yl)-4-oxo-4,5-dihydro-3H-1-thia-3,5,8-triazaacenaphthylene-2-carboxamide]: 8.40.

For the compound `C=CC(=O)N[C@H]1CCC[C@H]1NC(=O)c1sc2nccc3c2c1NC(=O)N3c1ccc(OC2CCOCC2)cc1C` (single isomer, unassigned) [Example 304, N-((1R,2S)-2-Acrylamidocyclopentyl)-5-(*S)-(2-methyl-4-((tetrahydro-2H-pyran-4-yl)oxy)phenyl)-4-oxo-4,5-dihydro-3H-1-thia-3,5,8-triazaacenaphthylene-2-carboxamide], the “BTK_I_binding pIC50” value is 7.48.

For the compound `C=CC(=O)N[C@H]1CC[C@H](NC(=O)c2sc3nccc4c3c2NC(=O)N4c2cnc(Oc3ccccc3)cc2C)C1` (single isomer, unassigned) [Example 306, N-((1*S,3*S)-3-Acrylamidocyclopentyl)-5-(*S)-(4-methyl-6-phenoxypyridin-3-yl)-4-oxo-4,5-dihydro-3H-1-thia-3,5,8-triazaacenaphthylene-2-carboxamide], the “BTK_I_binding pIC50” value is 8.04. In the case of `C=CC(=O)N[C@H]1CCC[C@H](NC(=O)c2sc3nccc4c3c2NC(=O)N4c2cnc(Oc3ccccc3)cc2C)C1` (single isomer, unassigned) [Example 308, N-((1*S,3*S)-3-Acrylamidocyclohexyl)-5-(*S)-(4-methyl-6-phenoxypyridin-3-yl)-4-oxo-4,5-dihydro-3H-1-thia-3,5,8-triazaacenaphthylene-2-carboxamide], the “BTK_I_binding pIC50” value is given as 7.78. For `C=CC(=O)N[C@H]1CCCC[C@H]1NC(=O)c1sc2nccc3c2c1NC(=O)N3c1cnc(OC2CCCC2)cc1C` (single isomer, unassigned) [Example 309, N-((1R,2S)-2-Acrylamidocyclohexyl)-5-(*S)-(6-(cyclopentyloxy)-4-methylpyridin-3-yl)-4-oxo-4,5-dihydro-3H-1-thia-3,5,8-triazaacenaphthylene-2-carboxamide], the “BTK_I_binding pIC50” value was determined as 7.91. With `C=CC(=O)N[C@H]1CCCC[C@H]1NC(=O)c1sc2nccc3c2c1NC(=O)N3c1cnc(OCC(C)C)cc1C` (single isomer, unassigned) [Example 312, N-((1R,2S)-2-Acrylamidocyclohexyl)-5-(*S)-(6-isobutoxy-4-methylpyridin-3-yl)-4-oxo-4,5-dihydro-3H-1-thia-3,5,8-triazaacenaphthylene-2-carboxamide], the “BTK_I_binding pIC50” value stood at 8.01. Same read-out and setting: the value for `C=CC(=O)N[C@@H]1CC[C@H](NC(=O)c2sc3nccc4c3c2NC(=O)N4c2ccc(Oc3ccccc3)cn2)C1` (single isomer, unassigned) [Example 313] was 7.83; that for `C=CC(=O)N[C@H]1CCC[C@H](NC(=O)c2sc3nccc4c3c2NC(=O)N4c2ccc(Oc3ccccc3)cn2)C1` (single isomer, unassigned) [Example 315, N-((1*S,3*S)-3-Acrylamidocyclohexyl)-4-oxo-5-(5-phenoxypyridin-2-yl)-4,5-dihydro-3H-1-thia-3,5,8-triazaacenaphthylene-2-carboxamide] was 7.50. Regarding `C=CC(=O)N[C@@H]1CCC[C@H]1NC(=O)c1sc2nccc3c2c1NC(=O)N3c1ccc(OC(C)C)cc1C` (single isomer, unassigned) [Example 316, N-((1R,2R)-2-Acrylamidocyclopentyl)-5-(*S)-(4-isopropoxy-2-methylphenyl)-4-oxo-4,5-dihydro-3H-1-thia-3,5,8-triazaacenaphthylene-2-carboxamide], the “BTK_I_binding pIC50” value stood at 7.33. In the case of `Cc1nc(Oc2ccccc2)ccc1N1C(=O)Nc2c(C(=O)N[C@@H]3CCC[C@@H]3N)sc3nccc1c23` (single isomer, unassigned) [Example 318, N-((1*R,2*S)-2-Aminocyclopentyl)-5-(*S)-(2-methyl-6-phenoxypyridin-3-yl)-4-oxo-4,5-dihydro-3H-1-thia-3,5,8-triazaacenaphthylene-2-carboxamide], the “BTK_I_binding pIC50” value is 6.46. `C=CC(=O)N[C@H]1CC[C@H](NC(=O)c2sc3nccc4c3c2NC(=O)N4c2ccc(Oc3ccccc3)nc2)C1` (single isomer, unassigned) [Example 321, N-((1*S,3*S)-3-Acrylamidocyclopentyl)-4-oxo-5-(6-phenoxypyridin-3-yl)-4,5-dihydro-3H-1-thia-3,5,8-triazaacenaphthylene-2-carboxamide]: the “BTK_I_binding pIC50” value is 7.71.

The same assay, now with this note: compound, 50 nM Tracer 236, 2 nM anti-GST antibody, 60 minutes; pIC50 = negative log of the IC50 in molar.
`Cc1nc(Oc2ccccc2)ncc1N1C(=O)Nc2c(C(=O)N[C@@H]3CCC[C@H]3N)sc3nccc1c23` (single isomer, unassigned) [Example 256, N-((1R,2R)-2-Aminocyclopentyl)-5-(*S)-(4-methyl-2-phenoxypyrimidin-5-yl)-4-oxo-4,5-dihydro-3H-1-thia-3,5,8-triazaacenaphthylene-2-carboxamide]: the “BTK_I_binding pIC50” value is 6.48. Still for that read-out and setting: next, `Cc1cc(Oc2ccccc2)ccc1N1C(=O)Nc2c(C(=O)N[C@H]3CC[C@H](N)C3)sc3nccc1c23` (single isomer, unassigned) [Example 259, N-((1S,3S)-3-Aminocyclopentyl)-5-(*S)-(2-methyl-4-phenoxyphenyl)-4-oxo-4,5-dihydro-3H-1-thia-3,5,8-triazaacenaphthylene-2-carboxamide]: 6.45. On to `Cc1cc(Oc2ccccc2)ccc1N1C(=O)Nc2c(C(=O)N[C@@H]3CCC[C@H](N)C3)sc3nccc1c23` (single isomer, unassigned) [Example 261, N-((1R,3S)-3-Aminocyclohexyl)-5-(*S)-(2-methyl-4-phenoxyphenyl)-4-oxo-4,5-dihydro-3H-1-thia-3,5,8-triazaacenaphthylene-2-carboxamide], for which the “BTK_I_binding pIC50” value came to 6.42.

Consider `Cc1cc(OC(C)C)ccc1N1C(=O)Nc2c(C(=O)N[C@@H]3CCC[C@@H]3N)sc3nccc1c23` (single isomer, unassigned) [Example 262, N-((1R,2S)-2-Aminocyclopentyl)-5-(*R)-(4-isopropoxy-2-methylphenyl)-4-oxo-4,5-dihydro-3H-1-thia-3,5,8-triazaacenaphthylene-2-carboxamide], for which the “BTK_I_binding pIC50” value was 6.39. Still for that read-out and setting: next, `C=CC(=O)N[C@@H]1CCCC[C@H]1NC(=O)c1sc2nccc3c2c1NC(=O)N3c1ccc(OC(C)C)cc1C` (single isomer, unassigned) [Example 264, N-((1R,2R)-2-Acrylamidocyclohexyl)-5-(*R)-(4-isopropoxy-2-methylphenyl)-4-oxo-4,5-dihydro-3H-1-thia-3,5,8-triazaacenaphthylene-2-carboxamide]: 6.26; `C=CC(=O)N[C@H]1CCCC[C@H]1NC(=O)c1sc2nccc3c2c1NC(=O)N3c1cnc(OC2CCC2)cc1C` (single isomer, unassigned) [Example 266, N-((1R,2S)-2-Acrylamidocyclohexyl)-5-(*R)-(6-cyclobutoxy-4-methylpyridin-3-yl)-4-oxo-4,5-dihydro-3H-1-thia-3,5,8-triazaacenaphthylene-2-carboxamide]: 6.21.

The assay is the same for the next values; noted with them: read-out: BTK_I_binding pIC50 (converted).
As to `C=CC(=O)N[C@H]1CCCC[C@@H]1NC(=O)c1sc2nccc3c2c1NC(=O)N3c1ccc(OC(C)C)cc1C` (single isomer, unassigned) [Example 272, N-((1S,2S)-2-Acrylamidocyclohexyl)-5-(*R)-(4-isopropoxy-2-methylphenyl)-4-oxo-4,5-dihydro-3H-1-thia-3,5,8-triazaacenaphthylene-2-carboxamide], the IC50 is over 1000 nM. The same measure, in the same setting: the value for `C=CC(=O)N[C@@H]1CCCC[C@H]1NC(=O)c1sc2nccc3c2c1NC(=O)N3c1ccc(OC(C)C)cc1C` (single isomer, unassigned) [Example 273, N-((1R,2R)-2-Acrylamidocyclohexyl)-5-(*S)-(4-isopropoxy-2-methylphenyl)-4-oxo-4,5-dihydro-3H-1-thia-3,5,8-triazaacenaphthylene-2-carboxamide] was over 1000 nM; that for `C=CC(=O)N[C@H]1CCC[C@H](NC(=O)c2sc3nccc4c3c2NC(=O)N4c2ccc(OC(C)C)cc2C)C1` (single isomer, unassigned) [Example 274, N-((1S, S)-3-Acrylamidocyclohexyl)-5-(*R)-(4-isopropoxy-2-methylphenyl)-4-oxo-4,5-dihydro-3H-1-thia-3,5,8-triazaacenaphthylene-2-carboxamide] was over 1000 nM; that for `C=CC(=O)N[C@H]1CCC[C@@H](NC(=O)c2sc3nccc4c3c2NC(=O)N4c2ccc(OC(C)C)cc2C)C1` (single isomer, unassigned) [Example 275, N-((1R,3S)-3-Acrylamidocyclohexyl)-5-(*R)-(4-isopropoxy-2-methylphenyl)-4-oxo-4,5-dihydro-3H-1-thia-3,5,8-triazaacenaphthylene-2-carboxamide] was over 1000 nM. Same read-out and setting: next, `C=CC(=O)N[C@H]1CC[C@@H](NC(=O)c2sc3nccc4c3c2NC(=O)N4c2ccc(OC(C)C)cc2C)C1` (single isomer, unassigned) [Example 276, N-((1R,3S)-3-Acrylamidocyclopentyl)-5-(*R)-(4-isopropoxy-2-methylphenyl)-4-oxo-4,5-dihydro-3H-1-thia-3,5,8-triazaacenaphthylene-2-carboxamide]: over 1000 nM.
